Results on 14 compounds are retold here after ChEMBL document CHEMBL1201862, “PubChem BioAssay data set” (2004).

Common to all, as to assay: inhibition of tumour cell growth, NCI panel, 48 h
Experiment [1] has as its system CCRF-CEM.
Experiment [2] has as its system SR.
Experiment [3] relates to HL-60.
Experiment [4] has as its system NCI-H460.
For experiment [5], the system named is SNB-75.
Experiment [6] has as its system SNB-19.
Experiment [7] concerns RPMI-8226.
For experiment [8], the system named is A498.
The test system of experiment [9] is NCI-H522.
Experiment [10] has as its system HOP-62.
Experiment [11] has as its system SK-OV-3.
For experiment [12], the system named is SK-MEL-5.
The test system of experiment [13] is MOLT-4.
The subject of experiment [14] is UO-31.
Experiment [15] concerns SF-268.
The test system of experiment [16] is OVCAR-5.

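These data come from cells grown in 96-well plates and exposed to compound for 48 hours at five concentrations. The concentration for 50% growth inhibition is given as GI50.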 Activity calls are given as the source filed them. No stated cut-off is given here; in the data, active = GI50 up to about 1.1 µM and inactive = higher. Some results are limits rather than exact numbers.

Take `O=C(/C=C/c1cccc2ccccc12)c1ccccc1Cl`: the GI50 in [1] is 3.72 µM (inactive); in experiment [2], 4.35 µM (inactive); in [3] it was 2.65 µM (inactive); in [4] it was 13.5 µM (inactive); in [5], 16.7 µM (inactive); in [6] it was 14.1 µM (inactive). In addition, the GI50 is 5.43 µM (inactive) in [7]; 16 µM (inactive) in experiment [8]; 14.4 µM (inactive) in experiment [9]; 18.6 µM (inactive) in experiment [10]; 21.4 µM (inactive) in experiment [11]; 16.9 µM (inactive) in experiment [12]. The values for the GI50 in experiment [13], in experiment [14] and in experiment [15] were 3.85 µM (inactive), 14.8 µM (inactive) and 18.4 µM (inactive), respectively.

For the compound `Cn1c2c(c3ccccc31)CCN(CCN1CCN(c3ccccc3)CC1)C2=O`, the GI50 in experiment [1] was > 100 µM (inactive); in experiment [3] it was > 100 µM (inactive); in experiment [4] it was > 100 µM (inactive); in [7], > 100 µM (inactive); in experiment [9] it was 26.3 µM (inactive); in experiment [11], > 100 µM (inactive). Further, the GI50 in experiment [12] was 61.1 µM (inactive); in experiment [13], > 100 µM (inactive); in experiment [14], > 100 µM (inactive); in experiment [15] it was > 100 µM (inactive).

As for `Cc1ccc(NC(=O)CC(=O)n2nc(-c3ccccc3)c(/N=N/c3ccccc3Cl)c2-c2ccccc2)cc1`, the GI50 is 41.4 µM (inactive) in [1]; > 100 µM (inactive) in experiment [2]; 0.458 µM (active) in [3]; 75.5 µM (inactive) in [4]; 16.4 µM (inactive) in [5]; 19.4 µM (inactive) in experiment [16]. The GI50 is 38.8 µM (inactive) in experiment [6]; > 10 µM (inactive) in experiment [7]; 34 µM (inactive) in experiment [8]; 65.8 µM (inactive) in experiment [9]; 83.8 µM (inactive) in [10]; 27 µM (inactive) in experiment [11]. For the same compound, the GI50 in [12] is 67.1 µM (inactive); in experiment [13], > 10 µM (inactive); in experiment [14], > 10 µM (inactive); in experiment [15], > 10 µM (inactive).

In the case of `O=C(CCc1nnc(S)[nH]1)Nc1ccc(Cl)c(Cl)c1`, the GI50 in experiment [1] was 80.4 µM (inactive); in experiment [2], 51.2 µM (inactive); in experiment [3], 82.4 µM (inactive); in experiment [4] it was 90.8 µM (inactive); in [5] it was 20 µM (inactive); in [16], 33.8 µM (inactive). Also, the GI50 in experiment [6] is > 100 µM (inactive); in [7] it was > 100 µM (inactive); in experiment [8], > 100 µM (inactive); in experiment [9], 23.4 µM (inactive); in [10], 20 µM (inactive); in [11] it was > 100 µM (inactive). For the same compound, the GI50 is 14.1 µM (inactive) in [12], 45.8 µM (inactive) in experiment [13], 45.6 µM (inactive) in [14] and 42.8 µM (inactive) in experiment [15].

Take `C=CC(=O)NCNC(=O)C=C`: the GI50 in experiment [1], in [2], in experiment [3], in experiment [4], in [5] and in [16] was > 100 µM (inactive) throughout. In addition, the GI50 in experiment [6], in experiment [7], in experiment [8], in experiment [9], in experiment [10] and in [11] was > 100 µM (inactive) each time. The GI50 in experiment [12], in experiment [13], in experiment [14] and in experiment [15] was > 100 µM (inactive) throughout.

Regarding `CCOC(=O)C1=C(C(=O)OCC)C2(c3ccccc3)N(O1)c1ccccc1C2(C)C` (stereo not drawn), the GI50 in experiment [1] was 39.4 µM (inactive); in [3] it was 22.7 µM (inactive); in experiment [4], 39.5 µM (inactive); in experiment [5], 25.6 µM (inactive); in experiment [16], 99.3 µM (inactive); in [6], 38.3 µM (inactive). Moreover, the GI50 in experiment [7] was 20.7 µM (inactive); in experiment [8] it was 58.7 µM (inactive); in [9], 22.6 µM (inactive); in experiment [10], 37.6 µM (inactive); in [11] it was 30.1 µM (inactive); in [12] it was 56.4 µM (inactive). Also, the results for the GI50 in [13], in [14] and in experiment [15] were 32 µM (inactive), 20.6 µM (inactive) and 31.2 µM (inactive), respectively.

Turning to `NS(=O)(=O)c1ccc(NC(=O)CC(=O)Nc2ccc(S(N)(=O)=O)cc2)cc1`, the GI50 in experiment [1], in [2], in experiment [3], in experiment [5], in experiment [16] and in [6] was > 100 µM (inactive) each time. In addition, the GI50 in experiment [7], in [8], in experiment [9], in experiment [10], in [11] and in experiment [12] was > 100 µM (inactive) throughout. For the same compound, the GI50 in experiment [13], in experiment [14] and in [15] was > 100 µM (inactive) throughout.

As to `CCOC(=O)C(Cc1ccccc1)NC(=O)OC(C)(C)C` (stereo not drawn), the GI50 in [1], in [3], in experiment [4], in [5], in experiment [16] and in experiment [6] was > 100 µM (inactive) in each case. For the same compound, the GI50 is > 100 µM (inactive) in experiment [8]; > 10 µM (inactive) in experiment [9]; > 100 µM (inactive) in experiment [10]; > 100 µM (inactive) in experiment [11]; > 100 µM (inactive) in experiment [13]; > 100 µM (inactive) in experiment [14]. In [15], the GI50 is > 100 µM (inactive).

Turning to `NC(=O)c1csc(C2CCC(CO)O2)n1` (stereo not drawn), the GI50 in [1], in [3], in experiment [4], in [16], in experiment [6] and in [7] was > 100 µM (inactive) each time. The GI50 in [8], in [9], in experiment [10], in experiment [11], in experiment [13] and in [14] was > 100 µM (inactive) throughout. The GI50 in experiment [15] was > 100 µM (inactive).

On to `CC[n+]1c(/C=C/c2ccc(N(CCCl)CCCl)cc2)ccc2cc(Br)ccc21`, for which the GI50 in experiment [1] was 0.345 µM (active); in experiment [2] it was 1.46 µM (inactive); in experiment [3], 0.246 µM (active); in experiment [4], 2.65 µM (inactive); in [5] it was 0.312 µM (active); in [16], 3.99 µM (inactive). For the same compound, the GI50 in experiment [6] is 1.22 µM (inactive); in experiment [7] it was 2.53 µM (inactive); in experiment [8], 1310 µM (inactive); in experiment [9], 0.471 µM (active); in experiment [10], 3.43 µM (inactive); in [11], 2.23 µM (inactive). Also, the GI50 in experiment [12] is 1.1 µM (active); in experiment [13], 1.46 µM (inactive); in experiment [14] it was 15.1 µM (inactive); in experiment [15], 1.61 µM (inactive).

`CCN(CC)CC(=O)Nc1ccc2c(c1)C(=O)c1ccc(NC(=O)CN(CC)CC)cc1C2=O`: the GI50 in experiment [1] is 20.7 µM (inactive); in experiment [2], 18.1 µM (inactive); in experiment [3], 18.8 µM (inactive); in experiment [4], 14.1 µM (inactive); in experiment [5], 25.7 µM (inactive); in [16], > 100 µM (inactive). The GI50 in experiment [6] is 23.8 µM (inactive); in experiment [7], 31.3 µM (inactive); in experiment [8] it was 12.9 µM (inactive); in [9] it was 21.1 µM (inactive); in experiment [10], 20.3 µM (inactive); in experiment [11], 22.9 µM (inactive). For the same compound, the GI50 in experiment [12] was 21.2 µM (inactive); in experiment [13] it was 17.8 µM (inactive); in experiment [14] it was > 100 µM (inactive); in [15], 23.1 µM (inactive).

With `CSc1cnc2ccccc2c1Sc1cn(C)c2ccccc2c1=O`, the GI50 is 19.7 µM (inactive) in experiment [1]; 12.6 µM (inactive) in experiment [2]; 16 µM (inactive) in [3]; 13.2 µM (inactive) in experiment [4]; 17 µM (inactive) in experiment [5]; > 100 µM (inactive) in experiment [16]. The GI50 in experiment [6] was 19.1 µM (inactive); in experiment [7], 17.9 µM (inactive); in experiment [8] it was 36.2 µM (inactive); in experiment [10] it was 18 µM (inactive); in experiment [11] it was 17.6 µM (inactive); in [12], 24.4 µM (inactive). Moreover, the GI50 was 53.2 µM (inactive) in experiment [13], 25.5 µM (inactive) in experiment [14] and 9.14 µM (inactive) in experiment [15].

`c1ccc(SC2CCSc3ccccc3C2Sc2ccccc2)cc1` (stereo not drawn): the GI50 in [1] was > 100 µM (inactive); in experiment [3] it was 4.73 µM (inactive); in experiment [4], > 100 µM (inactive); in experiment [5], 19.8 µM (inactive); in experiment [6], 94.4 µM (inactive); in experiment [7] it was 96.4 µM (inactive). Further, the GI50 in experiment [8] was > 100 µM (inactive); in experiment [9], > 100 µM (inactive); in [10], > 100 µM (inactive); in experiment [11] it was > 10 µM (inactive); in [12], 20.9 µM (inactive); in experiment [13], > 100 µM (inactive). For the same compound, the GI50 in experiment [14] was 6.9 µM (inactive); in experiment [15], > 100 µM (inactive).

In the case of `O=C(O)Cc1cccc2c1Oc1ccccc1S2`, the GI50 in experiment [1], in experiment [3], in experiment [4], in [5], in experiment [6] and in [7] was > 100 µM (inactive) in each case. Also, the GI50 in [8], in experiment [10], in [11], in [12], in experiment [13] and in [14] was > 100 µM (inactive) throughout. Also, the GI50 in experiment [15] is > 100 µM (inactive).
